According to US7601753B2, “Pyrrolidine melanocortin-specific compounds” (Palatin Technologies, Inc., priority 2001, dated 2009):
Like-named read-outs stand apart in the source and are kept apart here. Non-standard residues stand in square brackets, D forms with d. Residues, ends and D or L forms follow the SMILES beside them. *: point of attachment. Hyp = O=C(O)[C@@H]1C[C@@H](O)CN1; Nle = CCCC[C@H](N)C(=O)O; NH(CH2)3NH2 = NCCCN*; Bn = c1ccc(C*)cc1

How the values were obtained:
[1] = target: T1, hMC5-R (Homo sapiens, UniProt P33032); assay: Competitive inhibition binding assay, 125I-NDP-α-MSH, hMC5-R; conditions: 1 μM test compound, 0.4 nM 125I-NDP-α-MSH, hMC5-R membranes, mean of triplicates, results less than 0% reported as 0%; for inhibition at 1 µM: read-out: Inhibition at 1 μM MC5-R
T1 construct: expressed in transfected cells
Experimental: (§1) A competitive inhibition binding assay was conducted using membranes prepared from hMC3-R, hMC4-R, hMC5-R, and B-16 mouse melanoma cells (containing MC1-R) using 0.4 nM ^125I-NDP-α-MSH (New England Nuclear, Boston, Mass., USA) in 50 mM HEPES buffer containing 1 mM MgCl2, 2 mM CaCl2, and 5 mM KCl, at pH 7.2. The assay tube also contained a chosen concentration of the test compound of this invention, typically a 1 μM concentration, for determining its efficacy in inhibiting the binding of ^125I-NDP-α-MSH to its receptor.
(§2) Incubation was for 90 minutes at room temperature, after which the assay mixture was filtered and the membranes washed three times with ice cold buffer. The filter was dried and counted in a gamma counter for remaining radioactivity bound to the membranes. 100% specific binding was defined as the difference in radioactivity (cpm) bound to cell membranes in the absence and presence of 1 μM α-MSH. […] Each assay was conducted in triplicate and the actual mean values are described.

[2] = target: T2, MC5-R (HEK-293 cells expressing MC5-R) (Homo sapiens, UniProt P33032); assay: Ki determination by the method of Example 3, MC5-R; type: cell-based
T2 construct: expressed in transfected cells; host or cells: HEK-293

[3] = target: T3, hMC3-R (Homo sapiens, UniProt P41968); assay: Competitive inhibition binding assay, 125I-NDP-α-MSH, hMC3-R; conditions: 1 μM test compound, 0.4 nM 125I-NDP-α-MSH, hMC3-R membranes, mean of triplicates, results less than 0% reported as 0%; for inhibition at 1 µM: read-out: Inhibition at 1 μM MC3-R
T3 construct: expressed in transfected cells
Experimental: as §1, §2

[4] = target: T4, MC1-R (B-16 mouse melanoma cells) (Mus musculus, UniProt Q01727); assay: Competitive inhibition binding assay, 125I-NDP-α-MSH, MC1-R; conditions: 1 μM test compound; 0.4 nM 125I-NDP-α-MSH; B-16 mouse melanoma cell membranes; mean of triplicates; results less than 0% reported as 0%
T4 construct: membranes prepared from hMC3-R, hMC4-R, hMC5-R, and B-16 mouse melanoma cells (containing MC1-R); endogenous in cells; host or cells: B-16 mouse melanoma cells (membranes)
Experimental: as §1, §2

[5] = target: T5, hMC4-R (Homo sapiens, UniProt P32245); assay: Competitive inhibition binding assay, 125I-NDP-α-MSH, hMC4-R; conditions: 1 μM test compound, 0.4 nM 125I-NDP-α-MSH, hMC4-R membranes, mean of triplicates, results less than 0% reported as 0%; for inhibition at 1 µM: read-out: Inhibition at 1 μM MC4-R
T5 construct: expressed in transfected cells
Experimental: as §1, §2

[6] = target: T4, MC1-R (B-16 mouse melanoma cells); assay: Ki determination by the method of Example 3, MC1-R; type: cell-based
[7] = target: T6, MC4-R (HEK-293 cells expressing MC4-R) (Homo sapiens, UniProt P32245); assay: Ki determination by the method of Example 3, MC4-R; type: cell-based; conditions: bound in μM
T6 construct: expressed in transfected cells; host or cells: HEK-293

[8] = target: T7, MC3-R (HEK-293 cells expressing MC3-R) (Homo sapiens, UniProt P41968); assay: Ki determination by the method of Example 3, MC3-R; type: cell-based; conditions: bound in μM
T7 construct: expressed in transfected cells; host or cells: HEK-293
T7 sequence (P41968 whole entry): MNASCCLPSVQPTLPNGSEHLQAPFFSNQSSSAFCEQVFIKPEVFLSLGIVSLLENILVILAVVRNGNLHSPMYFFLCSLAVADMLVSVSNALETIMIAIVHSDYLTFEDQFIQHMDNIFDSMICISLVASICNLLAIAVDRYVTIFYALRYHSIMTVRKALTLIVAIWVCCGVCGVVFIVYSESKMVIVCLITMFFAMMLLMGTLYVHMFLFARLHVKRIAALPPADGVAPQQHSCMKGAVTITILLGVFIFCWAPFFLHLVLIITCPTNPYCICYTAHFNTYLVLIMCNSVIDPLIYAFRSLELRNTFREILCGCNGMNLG

T3 sequence (P41968 whole entry): as above
T5 sequence (P32245 whole entry): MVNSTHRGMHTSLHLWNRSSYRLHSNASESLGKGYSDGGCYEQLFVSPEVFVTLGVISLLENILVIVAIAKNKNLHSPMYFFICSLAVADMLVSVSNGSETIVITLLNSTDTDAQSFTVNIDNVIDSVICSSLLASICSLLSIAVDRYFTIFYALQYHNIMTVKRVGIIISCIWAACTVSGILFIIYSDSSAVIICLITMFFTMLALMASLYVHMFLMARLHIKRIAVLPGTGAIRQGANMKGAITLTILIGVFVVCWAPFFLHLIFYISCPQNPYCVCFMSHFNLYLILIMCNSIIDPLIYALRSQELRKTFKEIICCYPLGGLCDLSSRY
T1 sequence (P33032 whole entry): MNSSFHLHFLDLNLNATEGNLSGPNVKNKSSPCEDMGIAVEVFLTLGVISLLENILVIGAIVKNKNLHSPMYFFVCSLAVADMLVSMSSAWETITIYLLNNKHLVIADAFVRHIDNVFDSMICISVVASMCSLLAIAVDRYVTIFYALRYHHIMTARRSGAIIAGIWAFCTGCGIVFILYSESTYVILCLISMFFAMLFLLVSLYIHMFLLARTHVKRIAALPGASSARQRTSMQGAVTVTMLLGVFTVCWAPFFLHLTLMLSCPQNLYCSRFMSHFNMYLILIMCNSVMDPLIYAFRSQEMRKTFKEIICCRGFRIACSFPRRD
T4 sequence (Q01727 whole entry): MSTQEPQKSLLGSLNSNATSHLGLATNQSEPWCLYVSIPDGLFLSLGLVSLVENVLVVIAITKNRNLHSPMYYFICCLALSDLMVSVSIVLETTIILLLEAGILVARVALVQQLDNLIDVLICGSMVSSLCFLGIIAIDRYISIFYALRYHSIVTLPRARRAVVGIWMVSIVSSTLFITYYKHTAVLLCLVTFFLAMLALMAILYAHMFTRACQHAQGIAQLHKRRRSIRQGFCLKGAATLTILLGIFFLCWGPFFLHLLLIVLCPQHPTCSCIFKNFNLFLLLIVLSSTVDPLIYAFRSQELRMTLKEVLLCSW
T2 sequence (P33032 whole entry): as the sequence (P33032 whole entry) above
T6 sequence (P32245 whole entry): as the sequence (P32245 whole entry) above

SMILES	inhibition at 1 µM [1]	inhibition at 1 µM [3]	inhibition at 1 µM [4]	inhibition at 1 µM [5]	further results
NCCCNC(=O)[C@@H]1C[C@@H](OCc2ccccc2)CN1C(=O)[C@@H](Cc1ccc(Cl)cc1)NC(=O)[C@@H]1Cc2ccccc2CN1 [Example 21]	48%	6%	40%	29%	Ki ([2]; value in nM, read-out: Ki (nM) MC5-R): 1150 nM
CCCCCCC(=O)N[C@@H](Cc1cnc[nH]1)C(=O)N[C@H](Cc1ccccc1)C(=O)N1C[C@H](OCc2ccccc2)C[C@H]1C(=O)NCCCNC(=N)N [Example 30, Heptanoyl-His-D-Phe-Hyp(Bzl)-NH(CH2)3—NH—C(═NH)—NH2]	–	–	–	–	Inhibition at 1 μM MC5-R [1]: 1%; Inhibition at 1 μM MC3-R [3]: 7%; Inhibition at 1 μM MC1-R [4]: 92%; Inhibition at 1 μM MC4-R [5]: 1%
[2H]N1CCC[C@@H]1C(=O)N[C@@H](Cc1ccccc1)C(=O)N1C[C@H](OCc2ccccc2)C[C@H]1C(=O)NCCCN [Example 44]	0%	0%	13%	11%	–
[2H]N[C@@H](Cc1ccccc1)C(=O)N1C2CC[C@H](COc3ccc4ccccc4c3)N2C(=O)[C@@H]1CCCCN (stereo partly drawn) [Example 38]	–	–	–	–	Inhibition at 1 μM MC5-R [1]: 1%; Inhibition at 1 μM MC3-R [3]: 0%; Inhibition at 1 μM MC1-R [4]: 0%; Inhibition at 1 μM MC4-R [5]: 13%
C[C@@H]1CN(C(=O)[C@H](N)Cc2ccc(Cl)cc2)[C@@H](CCCNC(=N)N)CN1CCc1ccc2ccccc2c1 [Example 15]	–	–	–	–	Inhibition at 1 μM MC5-R [1]: 34%; Inhibition at 1 μM MC3-R [3]: 46%; Inhibition at 1 μM MC1-R [4]: 85%; Inhibition at 1 μM MC4-R [5]: 43%
NCCCNC(=O)[C@@H]1C[C@@H](OCc2ccccc2)CN1C(=O)[C@@H](Cc1ccccc1)NC(=O)[C@H]1Cc2ccccc2CN1 [Example 24]	0%	0%	17%	5%	–
[2H]N[C@@H](Cc1cnc[nH]1)C(=O)N[C@@H](Cc1ccccc1)C(=O)N1C2CC[C@H](COc3ccc4ccccc4c3)N2C(=O)[C@@H]1CCCCN (stereo partly drawn) [Example 42]	–	–	–	–	Inhibition at 1 μM MC5-R [1]: 0%; Inhibition at 1 μM MC3-R [3]: 0%; Inhibition at 1 μM MC1-R [4]: 18%; Inhibition at 1 μM MC4-R [5]: 10%
[2H]N[C@@H](Cc1cnc[nH]1)C(=O)N[C@@H](Cc1ccccc1)C(=O)N1C[C@H](OCc2ccccc2)C[C@H]1C(=O)NCCCCN [Example 25]	7%	12%	50%	2%	–
CCCC[C@H](NC(C)=O)C(=O)N[C@@H](C)C(=O)N[C@@H](Cc1cnc[nH]1)C(=O)N[C@H](Cc1ccccc1)C(=O)N1C[C@H](OCc2ccccc2)C[C@H]1C(=O)NCCCN [Example 9, Ac-Nle-Ala-His-D-Phe-Hyp(Bzl)-NH(CH2)3—NH2] (Ac-[Nle]AH[dF][Hyp](Bn)-{NH(CH2)3NH2})	25%	13%	91%	8%	Ki ([6]; MC1-R, values in nM, read-out: Ki (nM) MC1-R): 10 nM; Ki [7]: > 1 µM; Ki ([2]; bound in μM, read-out: Ki MC5-R): > 1000 nM; Ki [8]: > 1 µM
[2H]N[C@@H](Cc1cnc[nH]1)C(=O)N[C@@H](Cc1ccccc1)C(=O)N1C[C@H](OCc2ccccc2)C[C@H]1C(=O)NCCCCCCN [Example 27]	8%	0%	36%	2%	–
NCCCNC(=O)[C@@H]1C[C@@H](OCc2ccccc2)CN1C(=O)[C@@H](Cc1ccccc1)NC(=O)[C@@H]1Cc2ccccc2CN1 [Example 23]	14%	0%	34%	6%	–
NCCCNC(=O)[C@@H]1C[C@@H](OCc2ccccc2)CN1C(=O)[C@@H](Cc1ccc(Cl)cc1)NC(=O)[C@H]1Cc2ccccc2CN1 [Example 22]	38%	10%	29%	27%	–
[2H]N[C@@H](Cc1cnc[nH]1)C(=O)N[C@@H](Cc1ccccc1)C(=O)N1C[C@H](OCc2ccccc2)C[C@H]1C(=O)NCCCNC(=N)N [Example 29]	4%	0%	0%	6%	–
[2H]N[C@@H](Cc1cnc[nH]1)C(=O)N[C@@H](Cc1ccccc1)C(=O)N1C[C@H](OCc2ccccc2)C[C@H]1C(=O)NCCCCCN [Example 26]	7%	0%	42%	1%	–
CCCC[C@H](N)C(=O)N[C@@H](C)C(=O)N[C@@H](Cc1cnc[nH]1)C(=O)N[C@H](Cc1ccccc1)C(=O)N1C[C@H](OCc2ccccc2)C[C@H]1C(=O)NCCCN [Example 10] (H-[Nle]AH[dF][Hyp](Bn)-{NH(CH2)3NH2})	7%	6%	83%	2%	Ki [6]: 70 nM
[2H]N[C@@H](Cc1cnc[nH]1)C(=O)N[C@@H](Cc1ccccc1)C(=O)N1C[C@H](OCc2ccccc2)C[C@H]1C(N)=O [Example 28, His-D-Phe-Hyp(Bzl)-NH2]	5%	0%	0%	0%	–
[2H]N[C@@H](Cc1ccccc1)C(=O)N1C2CC[C@H](COc3ccccc3)N2C(=O)[C@@H]1CCCCN (stereo partly drawn) [Example 36]	–	–	–	–	Inhibition at 1 μM MC5-R [1]: 0%; Inhibition at 1 μM MC3-R [3]: 41%; Inhibition at 1 μM MC1-R [4]: 0%; Inhibition at 1 μM MC4-R [5]: 8%
[2H]N[C@@H](Cc1cnc[nH]1)C(=O)N[C@@H](Cc1ccccc1)C(=O)N1C[C@H](OCc2ccccc2)C[C@H]1C(=O)NCCCN [Example 12]	2%	0%	48%	0%	–
